Patent publication US9096624B2 (OSI Pharmaceuticals, LLC, priority 2009, dated 2015)

What was measured:
FAK [1] = molecular target: T1, FAK (Homo sapiens, UniProt Q05397); test: Biochemical HTRF (FRET) assay of FAK kinase activity; conditions: 100 uM ATP; biotinylated PGT substrate; read-out: Mean FAK Biochem FRET IC50 (100 uM ATP)
Protocol: Biochemical HTRF (FRET) Assay Protocol
The ability of compounds to inhibit the kinase activity of recombinant FAK enzyme was determined by a HTRF (FRET) assay using Biotinylated PGT (B*PGT) as a peptide substrate. […] The reaction is stopped after 1 h and phosphotyrosine content of Biotin*PGT is measured using anti-phosphotyrosine specific Mab label with Eu3+-cryptate (Cisbio) and XL665 labeled streptavidin (Cisbio) by Homogeneous Time-Resolved Fluorescence (HTRF) method.
The Stock Reagents used are as follows:
Enzyme Buffer Reaction Buffer plus 0.03% BSA.
Development Buffer: 1 part 200 mM EDTA/50 mM Tris-HCl pH 7.4; 2 parts 1M KF; 0.07% BSA.
Assay Protocol: The compounds were serially diluted from 10 uM to […] (1:5 dil, 10 points) in kinase buffer (1×) containing 3% DMSO and added 5 uL to each well of a 384-well plate except negative and positive control wells. Only DMSO was added to positive and negative control wells. For negative control wells, no ATP was added but only 5 uL of B*PGT was added. B*PGT (final conc 7.5 ng/well) and ATP (final conc 100 uM) was added in 5 uL to all wells except negative control wells. Reaction was started by adding FAK enzyme (final conc 0.2 ng/well) in 5 ul of enzyme buffer per well and incubated at RT for 1 h. Phospho-tyrosine content of B*BGT was detected by adding PT66-Cryptate (1:100 dil) and XL665 conjugated streptavidin (1:100 dil) to each well in 7.5 uL development buffer and incubating for 1 h at RT. The plate was read on Victor machine

FAK [2] = molecular target: T1, FAK; test: Cell-based capture ELISA for inhibition of FAK autophosphorylation [pY397] in MiaPaCa2 cells
Protocol: Cell-Based Assays for Inhibition of FAK Autophosphorylation: MiaPaCa2 and U87MG
ELISA kit from Invitrogen (KHO0441).
Reagents Provided in Biosource FAK [pY397]
The cells were then suspended in cell assay medium.

FAK [3] = molecular target: T1, FAK; test: biochemical
[4] = MIA-PaCa2 cells on fibronectin, 2 h, no plasma, read-out: Mean FAK Cell Mechanistic IC50 MIA-PaCa2
[5] = MIA-PaCa2 cells, + 50% human plasma, read-out: Mean FAK Cell Mechanistic IC50 + 50% hP MIA-PaCa2
[6] = MIA-PaCa2 cells, + 50% mouse plasma (Table 2), read-out: Mean FAK Cell Mechanistic IC50 + 50% mP MIA-PaCa2

T1 sequence (Q05397 whole entry): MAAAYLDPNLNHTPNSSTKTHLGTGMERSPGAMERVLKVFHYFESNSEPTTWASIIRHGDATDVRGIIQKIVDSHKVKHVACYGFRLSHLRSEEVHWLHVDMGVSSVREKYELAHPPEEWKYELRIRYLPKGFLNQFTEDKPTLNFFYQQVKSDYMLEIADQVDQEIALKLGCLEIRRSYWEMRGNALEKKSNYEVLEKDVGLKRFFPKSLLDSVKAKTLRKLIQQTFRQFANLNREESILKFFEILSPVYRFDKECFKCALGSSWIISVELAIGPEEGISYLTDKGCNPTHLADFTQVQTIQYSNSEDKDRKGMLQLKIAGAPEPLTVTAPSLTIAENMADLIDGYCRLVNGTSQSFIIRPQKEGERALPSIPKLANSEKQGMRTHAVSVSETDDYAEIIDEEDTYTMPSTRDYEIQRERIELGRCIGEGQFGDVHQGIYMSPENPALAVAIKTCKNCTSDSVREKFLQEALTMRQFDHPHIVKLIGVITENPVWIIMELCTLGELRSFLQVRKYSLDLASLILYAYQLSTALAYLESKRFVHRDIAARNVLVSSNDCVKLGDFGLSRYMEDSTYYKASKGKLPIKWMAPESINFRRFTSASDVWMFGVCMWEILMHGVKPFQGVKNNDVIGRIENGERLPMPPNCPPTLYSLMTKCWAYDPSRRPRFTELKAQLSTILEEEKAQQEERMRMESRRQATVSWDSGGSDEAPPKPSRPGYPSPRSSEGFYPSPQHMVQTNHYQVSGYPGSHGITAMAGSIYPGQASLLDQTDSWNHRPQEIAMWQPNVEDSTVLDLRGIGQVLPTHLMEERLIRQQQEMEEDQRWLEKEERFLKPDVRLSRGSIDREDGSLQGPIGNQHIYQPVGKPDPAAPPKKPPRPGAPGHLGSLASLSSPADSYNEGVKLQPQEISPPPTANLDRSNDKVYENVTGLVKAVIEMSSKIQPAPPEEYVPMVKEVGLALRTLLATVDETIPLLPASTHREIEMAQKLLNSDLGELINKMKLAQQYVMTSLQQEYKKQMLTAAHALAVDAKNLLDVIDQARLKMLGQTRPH

Row | IC50 (FAK [2]; [6]) [µM] | Compound | IC50 (FAK [1]) [µM] | IC50 (FAK [2]; [4]) [µM] | IC50 (FAK [2]; [5]) [µM] | IC50 (FAK [3]) [µM]
1 | 1 to 10 | CN(c1ncccc1CNc1nc(Nc2ccc(CP(=O)(O)O)cc2)ncc1C(F)(F)F)S(C)(=O)=O [Example 41, [4-({4-[({2-[Methyl(methylsulfonyl)amino]pyridin-3-yl}methyl)amino]-5-(trifluoromethyl)pyrimidin-2-yl}amino)benzyl]phosphonic acid] | 1 to 10 | 1 to 10 | 1 to 10 | < 1
2 | – | CCOP(=O)(Cc1cccc(Nc2ncc(C(F)(F)F)c(NCc3cccnc3N(C)S(C)(=O)=O)n2)c1)OCC [Example 4, Diethyl [3-({4-[({2-[methyl(methylsulfonyl)amino]pyridin-3-yl}methyl)amino]-5-(trifluoromethyl)pyrimidin-2-yl}amino)benzyl]phosphonate] | 1 to 10 | 1 to 10 | 1 to 10 | < 1
3 | – | CCOP(C)(=O)Cc1cccc(Nc2ncc(C(F)(F)F)c(NCc3cccnc3N(C)S(C)(=O)=O)n2)c1 (centres unmarked) [Example 46, Ethyl methyl[3-({4-[({2-[methyl(methylsulfonyl)amino]pyridin-3-yl}methyl)amino]-5-(trifluoromethyl)pyrimidin-2-yl}amino)benzyl]phosphinate] | 1 to 10 | < 1 | < 1 | –
4 | 1 to 10 | CC(C)OP(=O)(Cc1ccc(Nc2ncc(C(F)(F)F)c(NCc3cccnc3N(C)S(C)(=O)=O)n2)cc1)OC(C)C [Example 27, dipropan-2-yl [4-({4-[({2-[methyl(methylsulfonyl)amino]pyridin-3-yl}methyl)amino]-5-(trifluoromethyl)pyrimidin-2-yl}amino)benzyl]phosphonate] | 1 to 10 | 1 to 10 | 1 to 10 | –
5 | – | CCOP(=O)(Cc1ccc(Nc2ncc(C(F)(F)F)c(NCc3cccnc3N(C)S(C)(=O)=O)n2)cc1)OCC [Example 1, diethyl [4-({4-[({2-[methyl(methylsulfonyl)amino]pyridin-3-yl}methyl)amino]-5-(trifluoromethyl)pyrimidin-2-yl}amino)benzyl]phosphonate] | < 1 | < 1 | < 1 | < 1
6 | – | CN(c1ncccc1CNc1nc(Nc2ccc(P(=O)(O)O)cc2)ncc1C(F)(F)F)S(C)(=O)=O [Example 6, [4-({4-[({2-[Methyl(methylsulfonyl)amino]pyridin-3-yl}methyl)amino]-5-(trifluoromethyl)pyrimidin-2-yl}amino)phenyl]phosphonic acid] | < 1 | 1 to 10 | – | < 1
7 | – | CCOP(=O)(OCC)C(C)c1ccc(Nc2ncc(C(F)(F)F)c(NCc3cccnc3N(C)S(C)(=O)=O)n2)cc1 (centres unmarked) [Example 5, Diethyl {1-[4-({4-[({2-[methyl(methylsulfonyl)amino]pyridin-3-yl}methyl)amino]-5-(trifluoromethyl)pyrimidin-2-yl}amino)phenyl]ethyl}phosphonate] | < 1 | < 1 | < 1 | –
8 | – | CCOP(=O)(OCC)C(C)(C)c1ccc(Nc2ncc(C(F)(F)F)c(NCc3cccnc3N(C)S(C)(=O)=O)n2)cc1 [Example 7] | < 1 | < 1 | < 1 | –
